Experimental findings from patent US4115385A, “Antibacterial 3-(5-tetrazolyl) penam compounds” (Pfizer Inc., priority 1977, dated 1978) are described below.

In brackets after ≈: the same amount, converted by molar mass.

The test system of one experiment is Streptococcus pyogenes. The experiment can be described thus: In vitro minimum inhibitory concentration (MIC) vs. Strep. pyogenes. In kind it is cell-based. The note with it: Streptococcus pyogenes, read-out: MIC vs. Strep. pyogenes. The protocol: The antibacterial penam compounds of the instant invention show activity against a wide variety of gram-positive and gram-negative bacteria. […] The broth is inoculated with the bacterial culture, and with the test antibiotic, and then it is incubated overnight. On the next day, the test is read visually. The minimum inhibitory concentration (MIC) is the lowest concentration of antibiotic which prevents turbidity, i.e., which prevents growth of the microorganism. In vitro activities of several of the penam compounds of the invention are presented later in this specification.
In Table II, the minimum inhibitory concentrations (MIC's) of compounds of formula I, wherein R^2 is hydrogen, against a strain of Streptococcus pyogenes, are reported; and in Table III, minimum inhibitory concentrations of compounds of formula I, wherein R^2 is hydrogen, against a strain of Staphylococcus aureus, are presented. Because of the tautomeric nature of such tetrazole derivatives, referred to hereinbefore,each of the preparations tested also contains some of the corresponding compound of formula II, wherein R^3 is hydrogen.
Usually MIC stands for the smallest concentration in the dilution series that meets the test's criterion for growth inhibition. As to `CC1(C)S[C@@H]2[C@H](NC(=O)Cc3ccc(CN=[N+]=[N-])s3)C(=O)N2[C@H]1c1nnn[nH]1` [2-(5-azidomethyl-2-thienyl)-acetyl, 6-(2-[5-Azidomethyl-2-thienyl]acetamido)-2,2-dimethyl-3-(5-tetrazolyl)penam], the minimal inhibitory concentration (MIC) was not above 0.1 µg/mL. On the same count and under the same terms, to `CNC(=O)NCCC(=O)N[C@@H](C(=O)N[C@@H]1C(=O)N2[C@@H]1SC(C)(C)[C@@H]2c1nnn[nH]1)c1ccccc1` belongs less than 0.1 µg/mL. With `CC1(C)S[C@@H]2[C@H](NC(=O)[C@H](N)C3CCCO3)C(=O)N2[C@H]1c1nnn[nH]1` (stereo partly drawn) [D-2-amino-2-(2-tetrahydrofuryl)acetyl], the minimum inhibitory concentration (MIC) is less than 0.1 µg/mL.

As for `CCOC(=O)NCC(=O)N[C@@H](C(=O)N[C@@H]1C(=O)N2[C@@H]1SC(C)(C)[C@@H]2c1nnn[nH]1)c1ccccc1`, the MIC was less than 0.1 µg/mL. Consider `CC(=O)NCCC(=O)N[C@@H](C(=O)N[C@@H]1C(=O)N2[C@@H]1SC(C)(C)[C@@H]2c1nnn[nH]1)c1ccccc1`, for which the MIC is less than 0.1 µg/mL. For the compound `CC1(C)S[C@@H]2[C@H](NC(=O)[C@H](NC(=O)CNC(=O)c3ccc(Cl)cc3)c3ccccc3)C(=O)N2[C@H]1c1nnn[nH]1`, the MIC is 0.1 µg/mL (≈ 0.176 µM). On the same count and under the same terms, to `CC1(C)S[C@@H]2[C@H](NC(=O)[C@H](NC(=O)CCl)c3ccccc3)C(=O)N2[C@H]1c1nn[nH]n1` [D-2-(2-chloroacetamido)-2-phenylacetyl, 6-(D-2-[2-Chloroacetamido]-2-phenylacetamido)-2,2-dimethyl-3-(5-tetrazolyl)penam] belongs less than 0.1 µg/mL; to `CC1(C)S[C@@H]2[C@H](NC(=O)[C@H](NC(=O)C(=Cc3cccs3)C(=O)O)c3ccccc3)C(=O)N2[C@H]1c1nnn[nH]1` [6-(D-2-[2-carboxy-3-(2-thienyl)acrylamido]-2-phenylacetamido)-2,2-dimethyl-3-(5-tetrazolyl)penam], less than 0.1 µg/mL; to `CC1(C)S[C@@H]2[C@H](NC(=O)C(N)c3cc(O)ccc3Br)C(=O)N2[C@H]1c1nnn[nH]1` (mixture of isomers), less than 0.1 µg/mL. On the same count and under the same terms, the value for `CC1(C)S[C@@H]2[C@H](NC(=O)[C@H](NC(=O)NC(=O)c3cc(Br)cc(Br)c3)c3ccccc3)C(=O)N2[C@H]1c1nn[nH]n1` was less than 0.1 µg/mL; that for `CC1(C)S[C@@H]2[C@H](NC(=O)[C@H](NC(=O)Cc3ccco3)c3ccccc3)C(=O)N2[C@H]1c1nnn[nH]1` was less than 0.1 µg/mL; that for `CC1(C)S[C@@H]2[C@H](NC(=O)[C@H](NC(=O)CNC(=N)c3cnc4ccccc4n3)c3ccccc3)C(=O)N2[C@H]1c1nnn[nH]1` was 0.1 µg/mL (≈ 0.171 µM). On the same count and under the same terms, to `CC1(C)S[C@@H]2[C@H](NC(=O)[C@H](NC(=O)CSC3=NC(=O)CN3)c3ccccc3)C(=O)N2[C@H]1c1nn[nH]n1` belongs 0.1 µg/mL (≈ 0.189 µM). As to `CC1(C)S[C@@H]2[C@H](NC(=O)[C@H](NC(=O)CNC(=N)c3cc(I)cc(C#N)c3)c3ccccc3)C(=O)N2[C@H]1c1nnn[nH]1`, the minimum inhibitory concentration (MIC) was less than 0.1 µg/mL.

Take `CC1(C)S[C@@H]2[C@H](NC(=O)[C@H](NC(=O)CCNC(=O)c3cccc(Cl)c3)c3ccccc3)C(=O)N2[C@H]1c1nnn[nH]1`: the MIC is less than 0.1 µg/mL. On the same count and under the same terms, to `CC1(C)S[C@@H]2[C@H](NC(=O)[C@H](NC(=O)CCN)c3ccccc3)C(=O)N2[C@H]1c1nn[nH]n1` [D-2-(3-aminopropionamido)-2-phenylacetyl, 6-(D-2-[3-Aminopropionamido]-2-phenylacetamido)-2,2-dimethyl-3-(5-tetrazolyl)penam] belongs less than 0.1 µg/mL.

`CN(C)C=N[C@@H](C(=O)N[C@@H]1C(=O)N2[C@@H]1SC(C)(C)[C@@H]2c1nnn[nH]1)c1ccc(O)cc1` [6-(D-2-[Dimethylaminomethyleneamino]-2-[p-hydroxyphenyl]-acetamido)-2,2-dimethyl-3-(5-tetrazolyl)-penam]: the minimal inhibitory concentration (MIC) is less than 0.1 µg/mL. Regarding `CC1(C)S[C@@H]2[C@H](NC(=O)C(=O)Cc3ccccc3)C(=O)N2[C@H]1c1nnn[nH]1` [phenylpyruvoyl, 6-Phenylpyruvamido-2,2-dimethyl-3-(5-tetrazolyl)penam], the MIC is less than 0.1 µg/mL. On the same count and under the same terms, to `CC1(C)S[C@@H]2[C@H](NC(=O)C(N)c3cccnc3)C(=O)N2[C@H]1c1nnn[nH]1` (mixture of isomers) [DL-2-amino-2-(3-pyridyl)acetyl] belongs less than 0.1 µg/mL; to `CCNC(=N)NC(=O)NCC(=O)N[C@@H](C(=O)N[C@@H]1C(=O)N2[C@@H]1SC(C)(C)[C@@H]2c1nn[nH]n1)c1ccccc1`, less than 0.1 µg/mL. Still for that read-out and setting: to `CC1(C)S[C@@H]2[C@H](NC(=O)[C@H](NC(=O)c3cccnc3)c3ccccc3)C(=O)N2[C@H]1c1nnn[nH]1` belongs less than 0.1 µg/mL; to `CC1(C)S[C@@H]2[C@H](NC(=O)[C@H](NC(=O)CSc3nc4ccccc4[nH]3)c3ccccc3)C(=O)N2[C@H]1c1nn[nH]n1`, less than 0.1 µg/mL; to `COc1ccc(NC(=O)N[C@@H](C(=O)N[C@@H]2C(=O)N3[C@@H]2SC(C)(C)[C@@H]3c2nnn[nH]2)c2ccccc2)cc1`, less than 0.1 µg/mL. Regarding `CC1(C)S[C@@H]2[C@H](NC(=O)[C@H](NC(=O)CNC(=O)NC(=N)Cc3ccc(Cl)cc3)c3ccccc3)C(=O)N2[C@H]1c1nnn[nH]1`, the MIC was less than 0.1 µg/mL.

Staying with this experiment, now noted: Streptococcus pyogenes; Table II; two-fold serial dilution, Brain-Heart Infusion broth, overnight; read-out: MIC vs. Strep. pyogenes.
As to `CC1(C)S[C@@H]2[C@H](NC(=O)[C@H](NC(=O)CNC(=O)NC(=N)N)c3ccc(O)cc3)C(=O)N2[C@H]1c1nnn[nH]1` [6-(D-2-[2-(3-[guanyl]ureido)acetamido]-2-[4-hydroxyphenyl]acetamido)-2,2-dimethyl-3-(5-tetrazolyl)penam], the MIC worked out at 0.004 µg/mL (≈ 0.00753 µM). On the same count and under the same terms, the value for `CC1(C)S[C@@H]2[C@H](NC(=O)NC(=O)c3ccco3)C(=O)N2[C@H]1c1nn[nH]n1` [N-(2-furoyl)carbamoyl] was 1.56 µg/mL (≈ 4.13 µM); that for `CC1(C)S[C@@H]2[C@H](NC(=O)[C@H](NC(=O)C3OC3C(=O)O)c3ccccc3)C(=O)N2[C@H]1c1nnn[nH]1` (stereo partly drawn) [6-(D-2-[4-Carboxy-2,3-propionamido]-2-phenylacetamido)-2,2-dimethyl-3-(5-tetrazol-5-yl)penam] was 0.2 µg/mL (≈ 0.41 µM).

As for `CC1(C)S[C@@H]2[C@H](NC(=O)[C@H](N)c3ccco3)C(=O)N2[C@H]1c1nnn[nH]1` [D-2-amino-2-(2-furyl)acetyl], the MIC was found to be 0.39 µg/mL (≈ 1.07 µM).

With `CC1(C)S[C@@H]2[C@H](NC(=O)[C@H](NC(=O)CNC(=N)Cc3ccc(Cl)cc3)c3ccccc3)C(=O)N2[C@H]1c1nnn[nH]1`, the MIC came to 0.2 µg/mL (≈ 0.344 µM). Still for that read-out and setting: the value for `CC1(C)S[C@@H]2[C@H](NC(=O)CSc3ccccc3)C(=O)N2[C@H]1c1nnn[nH]1` [2-(phenylthio)acetyl, 6-(2-[phenylthio]acetamido)-2,2-dimethyl-3-(5-tetrazolyl)penam] was 0.78 µg/mL (≈ 2 µM); that for `CC1(C)S[C@@H]2[C@H](NC(=O)[C@H](NC(=O)CCNC(=N)Cc3ccc(Cl)cc3)c3ccccc3)C(=O)N2[C@H]1c1nnn[nH]1` was 1.56 µg/mL (≈ 2.62 µM); that for `CC1(C)S[C@@H]2[C@H](NC(=O)[C@H](NC(=O)CNC(=O)NC(=N)c3ccccc3)c3ccccc3)C(=O)N2[C@H]1c1nnn[nH]1` was 0.78 µg/mL (≈ 1.35 µM). With `CC1(C)S[C@@H]2[C@H](NC(=O)[C@H](NC(=O)CSc3ncc[nH]3)c3ccccc3)C(=O)N2[C@H]1c1nn[nH]n1`, the MIC is 0.2 µg/mL (≈ 0.389 µM). Turning to `CCCC(=O)N[C@@H](C(=O)N[C@@H]1C(=O)N2[C@@H]1SC(C)(C)[C@@H]2c1nnn[nH]1)c1ccccc1` [D-2-(butyramido)-2-phenylacetyl], the minimal inhibitory concentration (MIC) stood at 0.39 µg/mL (≈ 0.879 µM).

Take `CC(=O)C(C(=O)NC1C(=O)N2C(c3nnn[nH]3)C(C)(C)S[C@H]12)c1ccccc1` (stereo partly drawn) [D-2-acetyl-2-phenylacetyl, 6-(2-Acetyl-2-phenylacetamido)-2,2-dimethyl-3-(5-tetrazolyl)penam]: the MIC came out at 0.004 µg/mL (≈ 0.00999 µM). On the same count and under the same terms, the value for `CC1(C)S[C@@H]2[C@H](NC(=O)[C@H](NC(=O)CNC(=O)NS(C)(=O)=O)c3ccccc3)C(=O)N2[C@H]1c1nnn[nH]1` was 0.2 µg/mL (≈ 0.363 µM); that for `CC1(C)S[C@@H]2[C@H](NC(=O)[C@H](NC(=O)CSC(=N)N)c3ccccc3)C(=O)N2[C@H]1c1nn[nH]n1` was 0.004 µg/mL (≈ 0.00817 µM). On the same count and under the same terms, to `CC1(C)S[C@@H]2[C@H](NC(=O)[C@H](NC(=O)CNC(=N)c3cc(S(N)(=O)=O)cc(S(N)(=O)=O)c3)c3ccccc3)C(=O)N2[C@H]1c1nnn[nH]1` belongs 0.004 µg/mL (≈ 0.00578 µM); to `CCCCN=C(NCCCC)SCC(=O)N[C@@H](C(=O)N[C@@H]1C(=O)N2[C@@H]1SC(C)(C)[C@@H]2c1nn[nH]n1)c1ccccc1`, 0.004 µg/mL (≈ 0.00665 µM); to `CC1(C)S[C@@H]2[C@H](NC(=O)[C@H](NC(=O)NC(=O)CSC(=N)N)c3ccccc3)C(=O)N2[C@H]1c1nn[nH]n1` [6-(D-2-[3-(2-[Guanylthio]acetyl)ureido]-2-phenylacetamido)-2,2-dimethyl-3-(5-tetrazol-5-yl)penam], 0.004 µg/mL (≈ 0.00751 µM). On the same count and under the same terms, to `CC1(C)S[C@@H]2[C@H](NC(=O)[C@H](NS(=O)(=O)c3cccs3)c3ccccc3)C(=O)N2[C@H]1c1nn[nH]n1` belongs 0.39 µg/mL (≈ 0.751 µM).

Staying with this experiment, now noted: Streptococcus pyogenes; Table IV; read-out: MIC vs. Strep. pyogenes.
As to `CC1(C)S[C@@H]2[C@H](N3CN[C@H](c4ccc(O)cc4)C3=O)C(=O)N2[C@H]1c1nnn[nH]1` [6-(5-Oxo-4-[p-hydroxyphenyl]-1-imidazolidinyl)-2,2-dimethyl-3-(5-tetrazolyl)penam], the MIC amounted to 6.25 µg/mL (≈ 15.6 µM).

Staying with this experiment, now noted: Table II; two-fold serial dilution, Brain-Heart Infusion broth, overnight.
Take `CC1(C)SC2C(NC(=O)[C@@H](c3ccccc3)S(N)(=O)=O)C(=O)N2C1c1nnn[nH]1` (stereo partly drawn) [2-sulfamoyl-2-phenylacetyl, 6-(D-2-Sulfamoyl-2-phenylacetamido)-2,2-dimethyl-3-(5-tetrazolyl)penam]: the “MIC vs. Strep. pyogenes” value is less than 0.1 µg/mL.

The experiment is the same for the next values; noted with them: Table IV.
Take “6-(2-[2-Aminomethylphenyl]acetamido)-2,2-dimethyl-3-(1-[2]-pivaloyloxymethyltetrazol-5-yl)penam”: the “MIC vs. Strep. pyogenes” value was less than 0.1 µg/mL.
